Biological target: T1, VOR complex (VAP-A, ORP3, Rab7); Rab7 binding to ORP3 (Homo sapiens, UniProt Q9H4L5)
T1 construct: gene OSBPL3; endogenous full-length proteins in HeLa detergent lysate, ORP3 immunoisolated with antibody D-12; with Ras-related protein Rab-7a; Vesicle-associated membrane protein-associated protein A
T1 sequence (Q9H4L5 1-887): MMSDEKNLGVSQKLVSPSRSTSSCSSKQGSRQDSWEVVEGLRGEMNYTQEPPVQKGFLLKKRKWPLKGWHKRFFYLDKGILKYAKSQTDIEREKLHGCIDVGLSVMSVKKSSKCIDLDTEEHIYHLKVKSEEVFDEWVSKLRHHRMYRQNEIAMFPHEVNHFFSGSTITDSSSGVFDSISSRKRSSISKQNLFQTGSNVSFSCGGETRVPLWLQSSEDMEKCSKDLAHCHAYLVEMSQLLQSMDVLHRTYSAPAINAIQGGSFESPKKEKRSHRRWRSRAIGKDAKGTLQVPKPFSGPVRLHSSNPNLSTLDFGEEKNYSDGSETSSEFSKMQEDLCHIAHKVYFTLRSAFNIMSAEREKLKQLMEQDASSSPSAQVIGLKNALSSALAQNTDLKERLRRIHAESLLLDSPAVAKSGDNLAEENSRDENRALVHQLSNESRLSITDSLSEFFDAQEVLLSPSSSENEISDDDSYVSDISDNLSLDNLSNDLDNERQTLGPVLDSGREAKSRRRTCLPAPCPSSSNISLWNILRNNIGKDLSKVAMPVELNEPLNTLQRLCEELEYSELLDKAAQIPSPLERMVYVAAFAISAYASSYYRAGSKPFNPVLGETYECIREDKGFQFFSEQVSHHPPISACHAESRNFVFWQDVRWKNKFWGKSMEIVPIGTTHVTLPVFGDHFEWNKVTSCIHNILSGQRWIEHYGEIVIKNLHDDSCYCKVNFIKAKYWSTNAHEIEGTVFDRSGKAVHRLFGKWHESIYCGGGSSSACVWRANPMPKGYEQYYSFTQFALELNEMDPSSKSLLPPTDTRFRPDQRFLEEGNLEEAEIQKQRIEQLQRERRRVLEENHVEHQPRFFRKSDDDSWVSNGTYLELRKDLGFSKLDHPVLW
T1 sequence (Q9P0L0 2-249 partner): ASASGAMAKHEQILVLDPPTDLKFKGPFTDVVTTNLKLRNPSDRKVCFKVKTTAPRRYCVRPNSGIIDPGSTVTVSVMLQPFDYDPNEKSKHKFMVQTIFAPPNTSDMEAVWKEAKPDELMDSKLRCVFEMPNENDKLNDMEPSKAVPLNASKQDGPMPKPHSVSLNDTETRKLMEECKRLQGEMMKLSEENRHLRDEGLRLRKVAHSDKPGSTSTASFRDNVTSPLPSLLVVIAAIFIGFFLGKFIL
Experiment: ORP3 immunoisolation from drug-treated HeLa detergent lysate, Rab7/ORP3 immunoblot ratio, linear regression
Assay type: biochemical
Details: inhibition of Rab7 binding to ORP3 (VAP-A/ORP3); lysate with 1-10 μM compound, 30 min on ice; direct site on ORP3 ORD only cited from earlier work

| Compound | IC50 |
| --- | --- |
| CCC(C)n1ncn(-c2ccc(Cl)cc2)c1=O (centres unmarked) [PRR851] | 4.8 µM |
| CCC(C)n1ncn(-c2ccc(N3CCN(c4ccc(OCC5COC(Cn6cncn6)(c6ccc(Cl)cc6Cl)O5)cc4)CC3)cc2)c1=O (stereo not drawn) [ICZ, cis-4[4-4-4[[2-(2-4-dichlorophenyl)-2-(1H-1,2,4,triazol-1-methyl)-1,3-dioxolan-4-yl]-1-piperazinyl]phenyl]-2,4-dihydro-2-(1-methyl-propyl)-3H-1,2,4-triazol-3-one] | 4.9 µM |

— publication PMC10415338, “HIV-1-induced nuclear invaginations mediated by VAP-A, ORP3, and Rab7 complex explain infection of activated T cells” (Nature Communications, 2023)
